Laboratory results reported in patent US20230107216A1, “PANTETHEINE DERIVATIVES AND USES THEREOF” (Comet Therapeutics, Inc., priority 2018, published 2023).
Like-named read-outs stand apart in the source and are kept apart here.

What was measured:
Type in all cases: cell-based
[1] = tested on: Methylmalonic Acidemia (MMA) primary fibroblasts Tsi 5224; assay: Mitochondrial respiration, XFe96 Extracellular Flux Analyzer (OCR/ECAR), MMA fibroblasts Tsi 5224; details: Homo sapiens, Fibroblast, MMA Tsi 5224, assay condition A (10 mM glucose, 2 mM L-glutamine, 1 mM pyruvate, 10% FBS), read-out: Increase in Maximal Respiratory Capacity AUC;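 note: relative to vehicle DMSO control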
Experimental: The effect of the compounds of the present disclosure on mitochondrial respiration was measured with a XFe96 Extracellular Flux Analyzer (Seahorse Bioscience, Agilent Technologies) and Oxygen consumption Rate (OCR) and Extracellular acidification rate (ECAR) determined.
Cell culture and treatments. Primary adherent fibroblasts were cultured in minimum essential medium (MEM) (Gibco, 25030081) supplemented with 2 mM L-Glutamine (Gibco, 25030081), 15% fetal bovine serum (FBS) (Gibco, 26400044) and 1% penicillin/streptomycin (Gibco, 5140122) at 37° C. and 5% CO2. Cells were collected for either passaging or experiment at ˜70-80% confluence. Cells were obtained by trypsinization and seeded at 20000 cells/well in cell culture microplates (Seahorse Bioscience, 101085-004) and allowed to adhere for 16 hours in culture media.
By profiling different primary cells and/or optimizing their culture media or environmental components one can select cell lines and/or conditions that are appropriate for the biological or disease model. In the present example, 24 hours prior to OCR and ECAR profiling, media was changed to Dulbecco's Modified Eagle Medium (DMEM, Agilent Seahorse 103575-100) with the appropriate supplements for the different primary cells (10 mM glucose, 2 mM L-glutamine, 1 mM pyruvate, 10% FBS; 1 mM glucose, 2 mM L-glutamine, 1 mM pyruvate, 10% FBS; 10 mM glucose, 10% FBS; 5 mM glucose 10% FBS; 1 mM glucose 10% FBS). Cells used in this example were: Propionic Acidemia (PA) (GM00371, GM03590 Coriell Institute for Medical Research, Tsi 6337, Tsi 4626, Tsi 3618 Trans-Hit Bio), Methylmalonic Acidemia (MMA) (GM01673, Coriell Institute for Medical Research, Tsi 5224 Trans-Hit Bio), Branched chain ketoacid dehydrogenase kinase (BCKDK) (GM00612, GM00649 Coriell Institute for Medical Research), Subnormal activation of pyruvate dehydrogenase complex (PDH) (GM01503 Coriell Institute for Medical Research), Very long-chain acyl-CoA dehydrogenase (VLCAD) (GM17475), Leigh Syndrome (LS) (GM03672, GM13411 Coriell Institute for Medical Research), Pyruvate Carboxylase Deficiency (PC) (GM00444 Coriell Institute for Medical Research), Glutaric Acidemia-I (GA) (GM10653), Friedreich's Ataxia (FXN) (GM04078 Coriell Institute for Medical Research, Huntington's disease (HD) (GM21756 Coriell Institute for Medical Research), Ornithine Transcarbamylase Deficiency (OTC) (GM12756 Coriell Institute for Medical Research), Kearns-Sayre Syndrome (KSS) (GM06225 Coriell Institute for Medical Research).
One hour before the assay, the cells were washed with freshly prepared unbuffered serum free-Seahorse XF Assay medium (Seahorse Bioscience, North America, USA, 103575-100) with the same supplements as for the previous 24 hour incubation.
After baseline measurements of OCR, cells were challenged with compounds of the present disclosure at different concentrations (10 to 50 μM) or vehicle (DMSO, 0.1%) and a post-compound baseline was recorded. OCR was measured after sequentially adding to each well 1 μg/ml oligomycin (inhibitor of ATP synthase Sigma-Aldrich, 753531), then maximal OCR was determined with carbonyl cyanide 4-(trifluoromethoxy) phenylhydrazone (FCCP, Sigma-Aldrich, C2920), (uncoupler of oxidative phosphorylation) and 0.5 μM of rotenone (Sigma-Aldrich, R8875) plus antimycin A (Sigma-Aldrich, A8674) (inhibitors of mitochondrial complex I and III) for determination of rotenone-antimycin insensitive respiration together with Hoechst for nuclear staining in situ when normalized to cell counts. After the analysis and nuclear staining, the XFp microplate was transferred to the Cytation 5, and the nuclear images were captured, the individual nuclei were identified and counted by BioTek Gen5 software. Data were expressed as pmol of O2 per minute and normalized by nuclear staining and baselined to pre-compound addition.
Assay conditions were as stated below.
Assay specifics on assay conditions are indicated below when readouts were normalized to cell counts. […]

[2] = tested on: HepG2 cells; assay: Glucose uptake (Glucose Uptake-Glo); details: Homo sapiens, read-out: % increase in Glucose Uptake
[3] = tested on: Propionic Acidemia (PA) primary fibroblasts GM00371; assay: Mitochondrial respiration, XFe96 Extracellular Flux Analyzer (OCR/ECAR), PA fibroblasts GM00371; details: Homo sapiens, Fibroblast
[4] = tested on: HepG2 cells; assay: Mitochondrial membrane potential (MITO-ID MP detection Kit); details: Homo sapiens, 168 h, 50 uM, 7 days, read-out: % decrease in Mitochondrial Membrane Potential
Experimental: HepG2 cells (ATCC, HB-8065) were cultured (5% CO2 at 37° C.) and plated in Poly-D-Lysine 384-Well plate (Corning, 356663) at a density of 160000 cells/mL in 50 μL/well. Culture and assay media consisted of DMEM (Gibco, 11995-065) supplemented with 1% Penicillin-Streptomycin and 10% FBS (Hyclone, SV30087.03).
MITO-ID® MP detection Kit (ENZ-51018) was used and manufacturer instructions followed. Cells were allowed to settle for 30 min at room temperature and further incubated overnight (37° C. and 5% CO2) for adherence. Next day, test compounds (50-10 μM) and vehicle DMSO (0.2%) were added at the recommended volumes to the 384-well plate for 7 days without media change using a Tecan compound dispenser. All the solutions and wash buffers were prepared and dispensed according to manufacturer's volumes for a 384-well plate format.

Compound | activation at 10 µM [2] [%] | activation at 50 µM [2] [%] | other results
CC(=O)SCCNC(=O)CCNC(=O)[C@H](O)C(C)(C)COC(=O)O[C@H](CC(=O)[O-])C[N+](C)(C)C [Compound 183, (12R,18R)-12-hydroxy-13,13-dimethyl-2,7,11,16-tetraoxo-18-((trimethylammonio)methyl)-15,17-dioxa-3-thia-6,10-diazaicosan-20-oate] | ≥ 30 |  | activation at 10 µM [1]: ≥ 10%
CC(=O)O[C@@H](C(=O)NCCC(=O)NCCSC(=O)CCC(=O)O)C(C)(C)CO [Compound 211, 4-[(2-[3-[(2R)-2-(acetyloxy)-4-hydroxy-3,3-dimethylbutanamido]propanamido]ethyl)sulfanyl]-4-oxobutanoic acid] |  | ≥ 30 | 
CC(=O)SCCNC(=O)CCNC(=O)[C@H](O)C(C)(C)COC(=O)OCC[N+](C)(C)C [Compound 503, [2-([[(3R)-3-[(2-[[2-(acetylsulfanyl)ethyl]carbamoyl]ethyl)carbamoyl]-3-hydroxy-2,2-dimethylpropoxy]carbonyl]oxy)ethyl]trimethylazanium] |  | ≥ 20 | activation at 50 µM ([3]; assay condition A (10 mM glucose, 2 mM L-glutamine, 1 mM pyruvate, 10% FBS), read-out: Increase in Maximal Respiratory Capacity AUC): ≥ 10%
CC(C)(C)OC(=O)NCC(=O)OCC(C)(C)[C@@H](O)C(=O)NCCC(=O)NCCS [Compound 1274, (3R)-3-hydroxy-2,2-dimethyl-3-([2-[(2-sulfanylethyl)carbamoyl]ethyl]carbamoyl)propyl 2-[(tert-butoxycarbonyl)amino]acetate] |  | ≥ 30 | 
C[C@H](NC(=O)OC(C)(C)C)C(=O)OCC(C)(C)[C@@H](O)C(=O)NCCC(=O)NCCS [Compound 1278, (3R)-3-hydroxy-2,2-dimethyl-3-([2-[(2-sulfanylethyl)carbamoyl]ethyl]carbamoyl)propyl (2S)-2-[(tert-butoxycarbonyl)amino]propanoate] | ≥ 30 |  | 
C[C@H](NC(=O)OC(C)(C)C)C(=O)OCC(C)(C)[C@@H](O)C(=O)NCCC(=O)NCCSSCCNC(=O)CCNC(=O)[C@H](O)C(C)(C)COC(=O)[C@H](C)NC(=O)OC(C)(C)C [Compound 1277, (3R)-3-[[2-([2-[(2-[3-[(2R)-4-[[(2S)-2-[(tert-butoxycarbonyl)amino]propanoyl]oxy]-2-hydroxy-3,3-dimethylbutanamido]propanamido]ethyl)disulfanyl]ethyl]carbamoyl)ethyl]carbamoyl]-3-hydroxy-2,2-dimethylpropyl (2S)-2-[(tert-butoxycarbonyl)amino]propanoate] | ≥ 10 |  | 
COC(=O)CCC1(CC(=O)SCCNC(=O)CCNC(=O)[C@H](O)C(C)(C)COC(C)=O)OCC(C)(C)CO1 [Compound 1268, methyl 3-(2-[2-[(2-[3-[(2R)-4-(acetyloxy)-2-hydroxy-3,3-dimethylbu-tanamido]propanamido]ethyl)sulfanyl]-2-oxoethyl]-5,5-dimethyl-1,3-dioxan-2-yl)propanoate] |  | ≥ 30 | 
CC(C(=O)O)C(=O)SCCNC(=O)CCNC(=O)[C@H](O)C(C)(C)CO (stereo partly drawn) [Compound 393] | ≥ 30 |  | activation at 10 µM [1]: ≥ 10%
CC(=O)SCCNC(=O)CCNC(=O)[C@H](O)C(C)(C)COC(=O)CNC(=O)OC(C)(C)C [Compound 1275, (3R)-3-[(2-[[2-(acetylsulfanyl)ethyl]carbamoyl]ethyl)carbamoyl]-3-hydroxy-2,2-dimethylpropyl 2-[(tert-butoxycarbonyl)amino]acetate] | ≥ 20 |  | 
CC(=O)OCC(C)(C)[C@@H](OC(C)=O)C(=O)NCCC(=O)NCCS [Compound 1263, (1R)-3-(acetyloxy)-2,2-dimethyl-1-([2-[(2-sulfanylethyl)carbamoyl]ethyl]carbamoyl)propyl acetate] |  | ≥ 30 | 
COC(=O)CCC(=O)SCCNC(=O)CCNC(=O)[C@H](OC(C)=O)C(C)(C)COC(C)=O [Compound 214, methyl 4-[(2-[3-[(2R)-2,4-bis(acetyloxy)-3,3-dimethylbutanamido]propanamido]ethyl)sulfanyl]-4-oxobutanoate] | ≥ 20 |  | activation at 50 µM ([3]; assay condition A (10 mM glucose, 2 mM L-glutamine, 1 mM pyruvate, 10% FBS), read-out: Increase in Spare Capacity AUC): ≥ 50%; activation at 50 µM ([3]; assay condition D (1 mM glucose, 10% FBS), read-out: Increase in Spare Capacity AUC): ≥ 10%
CC(=O)OCC(C)(C)[C@@H](O)C(=O)NCCC(=O)NCCSC(=O)/C=C/C(=O)O [Compound 144, (2E)-4-[(2-[3-[(2R)-4-(acetyloxy)-2-hydroxy-3,3-dimethylbutanamido]propanamido]ethyl)sulfanyl]-4-oxobut-2-enoic acid] |  | ≥ 30 | 
CC(=O)NCC(=O)O[C@@H](C(=O)NCCC(=O)NCCSC(=O)CCC(=O)O)C(C)(C)CO [Compound 1296, 4-[(2-[3-[(2R)-2-[(2-acetamidoacetyl)oxy]-4-hydroxy-3,3-dimethylbutanamido]propanamido]ethyl)sulfanyl]-4-oxobutanoic acid] | ≥ 10 |  | activation at 10 µM ([3]; assay condition D (1 mM glucose, 10% FBS), 10 μM, read-out: Increase in Spare Capacity AUC): ≥ 30%
CCC(=O)OCC(C)(C)[C@@H](O)C(=O)NCCC(=O)NCCSSCCNC(=O)CCNC(=O)[C@H](O)C(C)(C)COC(=O)CC [Compound 1271, (3R)-3-hydroxy-3-[[2-([2-[(2-[3-[(2R)-2-hydroxy-3,3-dimethyl-4-(propanoyloxy)butanamido]propanamido]ethyl)disulfanyl]ethyl]carbamoyl)ethyl]carbamoyl]-2,2-dimethylpropyl propanoate] | ≥ 10 |  | 
C[C@H](O)CC(=O)SCCNC(=O)CCNC(=O)[C@H](O)C(C)(C)CO [Compound 1246, (2R)-2,4-dihydroxy-N-{2-[(2-{[(3S)-3-hydroxybutanoyl]sulfanyl}ethyl)carbamoyl]ethyl}-3,3-dimethylbutanamide] |  |  | inhibition at 50 µM [4]: > 50%
